IC50 data for 15 molecules are collected here from BindingDB's records for doi:10.1016/s0960-894x(98)00716-1 (Novartis Biomedical Research Institute, 1999).

Each structure is given as a SMILES string.

The target in the assay is Stromelysin-1 (MMP-3). As to the kind of experiment: In vitro inhibitory activity against matrix metalloprotease-3.

A word on the IC50: it is the concentration that inhibits the measured activity by half. A lower IC50 goes with greater potency in that assay. As to `CCO[C@H]1CC[C@@](CS)(C(=O)N[C@@H](Cc2ccccc2)C(=O)NCc2ccccc2)CC1` [4-Ethoxy-1-mercaptomethyl-cyclohexanecarboxylic acid ((S)-1-benzylcarbamoyl-2-phenyl-ethyl)-amide], it took 207 nM to reach half-maximal inhibition (IC50).

Turning to `CCO[C@H]1CC[C@@](CS)(C(=O)N[C@@H](Cc2ccc(F)cc2)C(=O)Nc2ccccc2)CC1` [4-Ethoxy-1-mercaptomethyl-cyclohexanecarboxylic acid [(S)-2-(4-fluoro-phenyl)-1-phenylcarbamoyl-ethyl]-amide], half-maximal inhibition (IC50) was put at 134 nM.

In the case of `CCC[C@H]1CC[C@@](CS)(C(=O)N[C@@H](Cc2ccccc2)C(=O)NC)CC1` [1-Mercaptomethyl-4-propyl-cyclohexanecarboxylic acid ((S)-1-methylcarbamoyl-2-phenyl-ethyl)-amide], the IC50 was more than 10000 nM.

`CCO[C@H]1CC[C@@](CS)(C(=O)N[C@@H](Cc2ccccc2)C(=O)Nc2ccc(OC)cc2)CC1` [4-Ethoxy-1-mercaptomethyl-cyclohexanecarboxylic acid [(S)-1-(4-methoxy-phenylcarbamoyl)-2-phenyl-ethyl]-amide] yielded a 50% inhibitory concentration (IC50) of 39 nM.

As for `CCO[C@H]1CC[C@@](CS)(C(=O)N[C@@H](Cc2ccccc2)C(=O)NC)CC1` [4-Ethoxy-1-mercaptomethyl-cyclohexanecarboxylic acid ((S)-1-methylcarbamoyl-2-phenyl-ethyl)-amide], the IC50 came to 640 nM.

On to `CCO[C@H]1CC[C@@](CS)(C(=O)N[C@@H](Cc2ccccc2)C(=O)Nc2ccc(Cl)cc2)CC1` [4-Ethoxy-1-mercaptomethyl-cyclohexanecarboxylic acid [(S)-1-(4-chloro-phenylcarbamoyl)-2-phenyl-ethyl]-amide], for which the midpoint of inhibition, the IC50, lay at 113 nM.

Regarding `CNC(=O)[C@H](Cc1ccccc1)NC(=O)[C@@]1(CS)CCCC(OC)C1` (stereo partly drawn) [(R)-1-Mercaptomethyl-3-methoxy-cyclohexanecarboxylic acid ((S)-1-methylcarbamoyl-2-phenyl-ethyl)-amide], the IC50 was more than 10000 nM.

`CCO[C@H]1CC[C@@](CS)(C(=O)N[C@@H](Cc2ccccc2)C(=O)NC2CCCC2)CC1` [4-Ethoxy-1-mercaptomethyl-cyclohexanecarboxylic acid ((S)-1-cyclopentylcarbamoyl-2-phenyl-ethyl)-amide] gave an IC50 of 666 nM.

Turning to `CCO[C@H]1CC[C@@](CS)(C(=O)N[C@@H](Cc2ccccc2)C(=O)NC2CCCCC2)CC1` [4-Ethoxy-1-mercaptomethyl-cyclohexanecarboxylic acid ((S)-1-cyclohexylcarbamoyl-2-phenyl-ethyl)-amide], the IC50 is 617 nM.

`CCO[C@H]1CC[C@@](CS)(C(=O)N[C@@H](Cc2ccccc2)C(=O)Nc2ccc(OC(F)(F)F)cc2)CC1` [4-Ethoxy-1-mercaptomethyl-cyclohexanecarboxylic acid [(S)-2-phenyl-1-(4-trifluoromethoxy-phenylcarbamoyl)-ethyl]-amide] registered an IC50 of 175 nM.

For the molecule `CNC(=O)[C@H](Cc1ccccc1)NC(=O)C1(CS)CCCCC1` [1-Mercaptomethyl-cyclohexanecarboxylic acid ((S)-1-methylcarbamoyl-2-phenyl-ethyl)-amide], the 50% inhibitory concentration (IC50) is 9200 nM.

Consider `CNC(=O)[C@H](Cc1ccccc1)NC(=O)[C@]1(CS)CC[C@H](C(C)(C)C)CC1` [4-tert-Butyl-1-mercaptomethyl-cyclohexanecarboxylic acid ((S)-1-methylcarbamoyl-2-phenyl-ethyl)-amide], for which the IC50 is more than 10000 nM.

On to `CCO[C@H]1CC[C@@](CS)(C(=O)N[C@@H](Cc2ccc(OC)cc2)C(=O)Nc2ccccc2)CC1` [4-Ethoxy-1-mercaptomethyl-cyclohexanecarboxylic acid [(S)-2-(4-methoxy-phenyl)-1-phenylcarbamoyl-ethyl]-amide], for which the IC50 amounted to 62 nM.

`CCOc1ccc(C[C@H](NC(=O)[C@]2(CS)CC[C@H](OCC)CC2)C(=O)Nc2ccccc2)cc1` [4-Ethoxy-1-mercaptomethyl-cyclohexanecarboxylic acid [(S)-2-(4-ethoxy-phenyl)-1-phenylcarbamoyl-ethyl]-amide] gave an IC50 of 139 nM.

Turning to `CCO[C@H]1CC[C@@](CS)(C(=O)N[C@@H](Cc2ccccc2)C(=O)Nc2ccccn2)CC1` [4-Ethoxy-1-mercaptomethyl-cyclohexanecarboxylic acid [(S)-2-phenyl-1-(pyridin-2-ylcarbamoyl)-ethyl]-amide], the half-inhibitory concentration (IC50) came out at 449 nM.
